Laboratory results reported in ChEMBL document CHEMBL1201862, “PubChem BioAssay data set” (2004).
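How tested: cells in 96-well plates exposed to compound for 48 hours at five concentrations. The concentration for 50% growth inhibition is given as GI50.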 Active and inactive are the calls of the source. Rule as the data show it: active = GI50 up to about 1.1 µM and inactive = higher.

What was measured:
Assay in all cases: NCI anticancer screen, dose series, 48 h
NCI-H226 = test system: NCI-H226
Malme-3M = test system: Malme-3M
UO-31 = test system: UO-31
BT-549 = test system: BT-549
MDA-N = test system: MDA-N
UACC-62 = test system: UACC-62
SK-MEL-2 = test system: SK-MEL-2
A498 = test system: A498
RPMI-8226 = test system: RPMI-8226
MCF7 = test system: MCF7
RXF 393 = test system: RXF 393
OVCAR-5 = test system: OVCAR-5
SR = test system: SR
COLO 205 = test system: COLO 205
NCI-H460 = test system: NCI-H460
Hs-578T = test system: Hs-578T
SF-295 = test system: SF-295
SK-OV-3 = test system: SK-OV-3
IGROV-1 = test system: IGROV-1
XF498 = test system: XF498

SMILES	GI50 (NCI-H226)	GI50 (Malme-3M)	GI50 (UO-31)	GI50 (BT-549)	GI50 (MDA-N)	GI50 (UACC-62)	GI50 (SK-MEL-2)	GI50 (A498)	GI50 (RPMI-8226)	GI50 (MCF7)	GI50 (RXF 393)	GI50 (OVCAR-5)	GI50 (SR)	GI50 (COLO 205)	GI50 (NCI-H460)	GI50 (Hs-578T)	GI50 (SF-295)	GI50 (SK-OV-3)	GI50 (IGROV-1)	GI50 (XF498)
FC(F)(F)c1cccc(-c2nc3nc(Cl)c(Cl)nc3[nH]2)c1	1.67 µM (inactive)	1.73 µM (inactive)	2.24 µM (inactive)	3.18 µM (inactive)	2.18 µM (inactive)	0.562 µM (active)	1.56 µM (inactive)	1.75 µM (inactive)	0.426 µM (active)	0.0241 µM (active)	3.1 µM (inactive)	2.48 µM (inactive)	2.62 µM (inactive)	1.45 µM (inactive)	2.01 µM (inactive)	2.57 µM (inactive)	2.05 µM (inactive)	2.86 µM (inactive)	2.99 µM (inactive)	–
CCN(CC)c1ccc2cc(-c3nc4ccccc4n3C)c(=O)oc2c1	0.302 µM (active)	–	3.52 µM (inactive)	0.274 µM (active)	0.0259 µM (active)	0.231 µM (active)	0.255 µM (active)	0.0163 µM (active)	0.33 µM (active)	0.667 µM (active)	1.74 µM (inactive)	1.15 µM (inactive)	0.0986 µM (active)	0.315 µM (active)	0.286 µM (active)	0.269 µM (active)	0.285 µM (active)	0.33 µM (active)	0.485 µM (active)	–
CCCCc1ccc(Nc2nc(Cl)c3c(ncn3COCCOC(C)=O)n2)cc1	17.4 µM (inactive)	19.4 µM (inactive)	18.7 µM (inactive)	15 µM (inactive)	18.8 µM (inactive)	16.6 µM (inactive)	19.1 µM (inactive)	20.5 µM (inactive)	29 µM (inactive)	22.5 µM (inactive)	12.9 µM (inactive)	18.5 µM (inactive)	20.7 µM (inactive)	22.3 µM (inactive)	18.3 µM (inactive)	21.5 µM (inactive)	14.4 µM (inactive)	17.1 µM (inactive)	19.2 µM (inactive)	–
CSCCC(C(=O)O)N(CC1(O)OCC(O)C(O)C1O)N=O (centres undefined)	–	> 100 µM (inactive)	> 100 µM (inactive)	–	–	> 100 µM (inactive)	> 100 µM (inactive)	> 100 µM (inactive)	> 100 µM (inactive)	–	> 100 µM (inactive)	> 100 µM (inactive)	–	> 100 µM (inactive)	> 100 µM (inactive)	–	–	> 100 µM (inactive)	> 100 µM (inactive)	> 100 µM (inactive)
CCOC(=O)C(Oc1ccc(OC)c2c1C(=O)CCC2)c1ccccc1 (centres undefined)	–	> 100 µM (inactive)	53.2 µM (inactive)	–	–	69.3 µM (inactive)	> 100 µM (inactive)	> 100 µM (inactive)	45.9 µM (inactive)	–	–	> 100 µM (inactive)	–	> 100 µM (inactive)	> 100 µM (inactive)	–	69.5 µM (inactive)	> 100 µM (inactive)	> 100 µM (inactive)	> 100 µM (inactive)
CN1C(c2ccccc2)CS(=O)(=O)CS1(=O)=O (centres undefined)	–	> 100 µM (inactive)	> 100 µM (inactive)	–	–	> 100 µM (inactive)	> 100 µM (inactive)	> 100 µM (inactive)	–	–	> 100 µM (inactive)	> 100 µM (inactive)	–	> 100 µM (inactive)	> 100 µM (inactive)	–	> 100 µM (inactive)	> 100 µM (inactive)	> 100 µM (inactive)	> 100 µM (inactive)
COc1cc(C=O)cc(/C=N/N=C/c2ccccc2O)c1O	16.6 µM (inactive)	3.97 µM (inactive)	24.6 µM (inactive)	10.2 µM (inactive)	25 µM (inactive)	28.4 µM (inactive)	17.3 µM (inactive)	> 100 µM (inactive)	16.4 µM (inactive)	64.7 µM (inactive)	37.3 µM (inactive)	–	19.8 µM (inactive)	30.5 µM (inactive)	31.4 µM (inactive)	2.92 µM (inactive)	2.7 µM (inactive)	12.7 µM (inactive)	40.1 µM (inactive)	–
CCN(CC)CCCNc1nccc2c(C)c3c(cc12)c1cnccc1n3C	–	–	0.748 µM (active)	–	–	0.891 µM (active)	–	1.18 µM (inactive)	–	–	–	–	–	0.249 µM (active)	0.0111 µM (active)	–	0.206 µM (active)	0.377 µM (active)	0.4 µM (active)	0.16 µM (active)
Nc1c(-c2ccc(-c3c(N)[n+]([O-])c4ccccc4[n+]3[O-])cc2)[n+]([O-])c2ccccc2[n+]1[O-]	20.6 µM (inactive)	3.02 µM (inactive)	16.4 µM (inactive)	–	–	10.2 µM (inactive)	13.7 µM (inactive)	18.3 µM (inactive)	23.8 µM (inactive)	–	–	20.5 µM (inactive)	–	10.1 µM (inactive)	14.3 µM (inactive)	–	16 µM (inactive)	24.9 µM (inactive)	17.7 µM (inactive)	11.5 µM (inactive)
CCOC(=O)c1cc2cc(Cc3ccc4[nH]c(C(=O)OCC)cc4c3)ccc2[nH]1	18.6 µM (inactive)	37.1 µM (inactive)	59 µM (inactive)	12.6 µM (inactive)	84.1 µM (inactive)	13.6 µM (inactive)	26.7 µM (inactive)	17.3 µM (inactive)	28.6 µM (inactive)	52.4 µM (inactive)	9.18 µM (inactive)	> 100 µM (inactive)	41.3 µM (inactive)	47.3 µM (inactive)	24.1 µM (inactive)	12.6 µM (inactive)	17.5 µM (inactive)	13.6 µM (inactive)	15.4 µM (inactive)	–
O=C1/C(=C/c2ccc(Br)s2)NC(=S)N1c1ccccc1	> 100 µM (inactive)	68.1 µM (inactive)	> 100 µM (inactive)	82.6 µM (inactive)	> 100 µM (inactive)	47.2 µM (inactive)	> 100 µM (inactive)	51.1 µM (inactive)	22.5 µM (inactive)	34.5 µM (inactive)	30.1 µM (inactive)	> 100 µM (inactive)	> 100 µM (inactive)	84.9 µM (inactive)	51.5 µM (inactive)	38.6 µM (inactive)	43.6 µM (inactive)	45.6 µM (inactive)	69.3 µM (inactive)	–
COc1ccc2nc3cc([N+](=O)[O-])ccc3c(Nc3ccc(S(=O)(=O)N=C(N)N)cc3)c2c1	20.4 µM (inactive)	14 µM (inactive)	30.5 µM (inactive)	33.2 µM (inactive)	39.3 µM (inactive)	14.6 µM (inactive)	18.5 µM (inactive)	> 100 µM (inactive)	10.5 µM (inactive)	9.55 µM (inactive)	40.1 µM (inactive)	> 100 µM (inactive)	1.32 µM (inactive)	23.1 µM (inactive)	9.82 µM (inactive)	30.9 µM (inactive)	47.1 µM (inactive)	58.5 µM (inactive)	–	–
CCOC1OC(COC(=O)C(C)(C)C)C(O)CC1n1cc(C)c(=O)[nH]c1=O (centres undefined)	> 100 µM (inactive)	> 100 µM (inactive)	> 100 µM (inactive)	> 100 µM (inactive)	> 100 µM (inactive)	> 100 µM (inactive)	> 100 µM (inactive)	> 100 µM (inactive)	> 100 µM (inactive)	> 100 µM (inactive)	> 100 µM (inactive)	> 100 µM (inactive)	> 100 µM (inactive)	> 100 µM (inactive)	> 100 µM (inactive)	> 100 µM (inactive)	> 100 µM (inactive)	–	> 100 µM (inactive)	–
CCOC(CCNCC(OCC)OCC)OCC	> 10 µM (inactive)	> 10 µM (inactive)	–	> 10 µM (inactive)	> 10 µM (inactive)	> 10 µM (inactive)	> 10 µM (inactive)	> 10 µM (inactive)	> 10 µM (inactive)	> 10 µM (inactive)	> 10 µM (inactive)	> 10 µM (inactive)	> 10 µM (inactive)	> 10 µM (inactive)	> 10 µM (inactive)	> 10 µM (inactive)	> 10 µM (inactive)	> 10 µM (inactive)	> 10 µM (inactive)	–
Cc1cc2c(cc1C)C(=O)c1ncccc1C2=O	40.1 µM (inactive)	7.85 µM (inactive)	37.3 µM (inactive)	40.9 µM (inactive)	18.7 µM (inactive)	30.3 µM (inactive)	48.5 µM (inactive)	50.2 µM (inactive)	29.9 µM (inactive)	20.2 µM (inactive)	33.2 µM (inactive)	21.1 µM (inactive)	< 0.01 µM (active)	18.3 µM (inactive)	7.91 µM (inactive)	> 100 µM (inactive)	41.8 µM (inactive)	87.9 µM (inactive)	31.2 µM (inactive)	–
N=c1c2c(=S)n(-c3ccccc3)c(=S)n(-c3ccccc3)c2nc(SCCCN2CCCCC2)n1-c1ccccc1	2.35 µM (inactive)	1.73 µM (inactive)	–	1.75 µM (inactive)	1.77 µM (inactive)	1.64 µM (inactive)	1.94 µM (inactive)	2.52 µM (inactive)	0.439 µM (active)	0.329 µM (active)	1.64 µM (inactive)	11.5 µM (inactive)	0.558 µM (active)	1.77 µM (inactive)	1.93 µM (inactive)	2.79 µM (inactive)	4.91 µM (inactive)	2.26 µM (inactive)	1.5 µM (inactive)	–
S=C1N=C2C(=N1)n1c3c(c4ccccc41)CCCC23 (centres undefined)	34.9 µM (inactive)	64.9 µM (inactive)	60.5 µM (inactive)	59.2 µM (inactive)	63.8 µM (inactive)	59.2 µM (inactive)	> 100 µM (inactive)	> 100 µM (inactive)	30 µM (inactive)	24 µM (inactive)	> 100 µM (inactive)	> 100 µM (inactive)	72.4 µM (inactive)	42 µM (inactive)	38.6 µM (inactive)	44.1 µM (inactive)	38.6 µM (inactive)	> 100 µM (inactive)	32.6 µM (inactive)	–
